Source: patent US12414948B2, “Methods” (INTRA-CELLULAR THERAPIES, INC., priority 2022, dated 2025)

Test system: serum cytokines IL-1b, IL-6, TNF-alpha, IL-10
Experiment: Serum cytokine protein (Multiplex MSD) after acute restraint stress
Assay type: in vivo, mouse
Conditions: mice, 2 h restraint stress; Luma 3 mg/kg IP immediately before
Procedure: Multiplex Assays. In mouse serum, protein levels of IL-1b, IL-6, IL-10 and TNF-alpha are measured using a V-Plex Meso Scale Discovery (MSD) Multiplex spot assay Mouse Neuroinflammation 1 panel (Meso Scale Diagnostics, Rockville, MD). All samples are run in duplicates or triplicates according to manufacturer instructions and analyzed with MSD Discovery Workbench software (Meso Scale Diagnostics).
Restraint Stress Protocol.
Control mice receive vehicle treatment and are returned to their home cage before sample collection. Protein concentration is measured using the Multiplex MSD assay V-Plex technology, normalized to the control group. Results are expressed in pg/mL.

## CN1CCN2c3c(cccc31)[C@@H]1CN(CCCC(=O)c3ccc(F)cc3)CC[C@@H]12 [Luma, lumateperone]
  Serum cytokine concentration IL-1b: 0.81 pg/mL
